Values after ≈ are worked out from the molar mass of the structure shown. Values belong to the molecule of their own block, whether it stands above or below them.
Experiments:
[1] = Long-term and accelerated stability test; format: physicochemical
Source text: (§1) Purity test: HPLC method (Chinese Pharmacopoeia 2015, Volume IV, general principles 0512)
(§2) Chromatographic column: octadecyl silane bonded silica gel as filler
(§3) Mobile phase A: 0.02 mol/L phosphate buffer (pH 3.0)-methanol-acetonitrile
(§4) Mobile phase B: methanol-acetonitrile-water
(§5) Detection wavelength: 215 nm.
(§6) Elution condition: gradient elution
The Crystal Form D of the compound of formula I was packed with inner bag (pharmaceutical low density polyethylene bag) and outer bag (pharmaceutical polyester/aluminum/polyethylene composite film bag), placed under the following stability testing conditions for stability tests.

[2] = Pharmacokinetic study in monkeys; format: in vivo; details: administered to monkeys
[3] = High temperature stability test; format: physicochemical; details: 60° C.; for Purity Change: sealed glass bottle
Source text: (§7) In this Experimental Example, high temperature, high humidity tests were used to study the chemical stability of the crystal form according to the invention.
as §1, §2, §3, §4, §5, §6
The Crystal Form D of the compound of formula I was placed in a sealed and clean glass bottle and placed in 60° C. constant temperature oven. Samples were taken 10 day/30 day respectively for impurity content determination.
(§8) Note: Purity Change=(Difference of sample purity at day 0 and sample purity after a certain period)/Sample purity at day 0×100%.

[4] = Thermogravimetric Analysis (TGA); format: physicochemical; details: heating rate 10K/min, N2 purge, 35-500° C.
Description: “Thermogravimetric Analysis (TGA)” is a common method for determining the thermal stability of compounds. The TGA curve can be measured, for example, on a Mettler Toledo TGA1 instrument. The error of TGA may be within about ±0.5 wt %. The term “substantially identical” means that such error variations are considered. Exemplary test conditions are: temperature range is 35-500° C., heating rate is 10 K/min, and purge gas is nitrogen (99.99%).
TGA is collected on Mettler Toledo TGA1 Thermogravimetric Analyzer, purge gas is N2 (99.99%), 100 ml/min; heating rate: 10K/min; temperature range: 35-500° C.
In the curve, the sample began to decompose at about 230° C. and no weight loss was found before decomposition.

[5] = Pharmacokinetic study in mice; format: in vivo; details: administered to mice
[6] = High humidity stability test; format: physicochemical; details: RH 92.5%; for Weight loss on drying / Purity Change: room temperature; for Purity Change: open dish
Source text: as §7, §1, §2, §3, §4, §5, §6
Weight loss on drying assay: Chinese Pharmacopoeia 2015, Volume IV, general principles 0831
as §8
The Crystal Form D of the compound of formula I was spread in open petri dish with thickness ≤5 mm, at room temperature, in constant temperature incubator of relative humidity (RH) 92.5%. Samples were taken 10 day/30 day for impurity content determination.

[7] = Pharmacokinetic study in dogs; format: in vivo; details: administered to dogs
[8] = Solubility test (HPLC external standard method); format: physicochemical
Description: In this Experimental Example, the solubility of two crystal form in different pH of simulated human gastric juice were tested to study the solubility of the crystal forms.
Solubility test: HPLC external standard method
as §2
Mobile phase: phosphate buffer (pH3.5):methanol:acetonitrile=2:9:9 (volume ratio)
Detection wavelength: 215 nm
Excess amount of Crystal Form D and Crystal Form Y were placed in tubes with plug, to which were added 10 ml of water (purified water), hydrochloric acid solution of pH 1.2, hydrochloric acid solution of pH 2.0, acetate buffer of pH 4.0, phosphate buffers of pH 4.5, 5.0, 6.8, 8.0, respectively, and vibrated on 37° C. water bath, then filtered. The subsequent filtrate was subjected to HPLC assay.
The preparations of various pH buffers can be referred to “Guideline for Dissolution Test of Normal Oral Solid Formulation” issued by Center for Drug Evaluation of China Food and Drug Administration for dissolution medium, and are detailed as follows:
The hydrochloric acid solution of pH 1.2 is prepared by diluting 7.65 ml of hydrochloric acid with water to 1000 ml and mixing well.
The hydrochloric acid solution of pH 2.0 is prepared by diluting 1.17 ml of hydrochloric acid with water to 1000 ml and mixing well.
The acetate buffer of pH 4.0 is prepared by diluting mixture of 1.22 g of sodium acetate with 20.5 ml of 2 mol/L acetic acid solution with water to 1000 ml and mixing well. The 2 mol/L acetic acid solution is prepared by diluting 114 mL of glacial acetic acid with water to 1000 ml.
The phosphate buffers of pH 4.5, 5.0, 6.8, 8.0 are prepared by adjusting pH of 0.2 mol/L monopotassium phosphate solution with 0.2 mol/L sodium hydroxide solution to pH 4.5, 5.0, 6.8, 8.0, respectively. The 0.2 mol/L monopotassium phosphate solution is prepared by dissolving 27.22 g of monopotassium phosphate in water and diluting to 1000 mL. The 0.2 mol/L sodium hydroxide solution is prepared by dissolving 8.00 g of sodium hydroxide in water and diluting to 1000 mL.

[9] = high temperature condition, up to 30 day
[10] = high humidity condition, up to 30 day
[11] = hydrochloric acid solution pH 1.2, 37° C.
[12] = hydrochloric acid solution pH 2.0, 37° C.
[13] = phosphate buffer pH 4.5, 37° C.
[14] = phosphate buffer pH 5.0, 37° C.
[15] = phosphate buffer pH 6.8, 37° C.
[16] = phosphate buffer pH 8.0, 37° C.

Change in purity or crystal form (in words) ([1]; 6 month or more under long-term and accelerated conditions): no change in purity or crystal form
Chemical purity ([1]; Accelerated (40° C. ± 2° C./RH75% ± 5%), 0 day): 99.83%
Chemical purity ([1]; Accelerated (40° C. ± 2° C./RH75% ± 5%), 6 month): 99.83%
Chemical purity ([1]; Long-term (25° C. ± 2° C./RH60% ± 5%), 0 day): 99.83%
Chemical purity ([1]; Long-term (25° C. ± 2° C./RH60% ± 5%), 6 month): 99.83%
Chemical purity ([1]; Long-term (30° C. ± 2° C./RH65% ± 5%), 0 day): 99.83%
Chemical purity ([1]; Long-term (30° C. ± 2° C./RH65% ± 5%), 6 month): 99.83%
Pharmacokinetic properties [2]: good pharmacokinetic properties
Purity Change ([3]; 10 day): 0.04%
Purity Change ([3]; 30 day): 0.03%
Change in crystal form (XRPD) [3, 9]: no change in crystal form
Change in purity (in words) [3, 9]: did not show obvious change in purity
Temperature at which the sample began to decompose (TGA) [4]: about 230 °C
Pharmacokinetic properties [5]: good pharmacokinetic properties
Weight loss on drying ([6]; 0 day): 0.31%
Weight loss on drying ([6]; 10 day): 0.35%
Weight loss on drying ([6]; 30 day): 0.36%
Purity Change ([6]; 10 day): 0.05%
Purity Change ([6]; 30 day): 0%
Change in crystal form (XRPD) [6, 10]: no change in crystal form
Change in purity (in words) [6, 10]: did not show obvious change in purity
Change in weight loss on drying (in words) [6, 10]: little change in weight loss on drying
Pharmacokinetic properties [7]: good pharmacokinetic properties
Solubility ([8]; acetate buffer pH 4.0, 37° C.): 10.6478 µg/mL (≈ 18 µM)
Solubility [8, 11]: 19.1353 µg/mL (≈ 32.3 µM)
Solubility [8, 12]: 14.5872 µg/mL (≈ 24.7 µM)
Solubility [8, 13]: 11.4829 µg/mL (≈ 19.4 µM)
Solubility [8, 14]: 13.8229 µg/mL (≈ 23.4 µM)
Solubility [8, 15]: 36.0017 µg/mL (≈ 60.9 µM)
Solubility [8, 16]: 110.5589 µg/mL (≈ 187 µM)
Solubility ([8]; water (purified water), 37° C.): 41.3607 µg/mL (≈ 69.9 µM)
Structure (SMILES): CCCCCCO[C@@H](C)c1cccc(-c2csc(NC(=O)c3cc(Cl)c(/C=C(\C)C(=O)O)c(Cl)c3)n2)c1OC [Crystal Form D, 4-phenylthiazole derivative]
Solubility compared with Crystal Form Y ([8]; simulated human gastric juice with various pH): significantly better than that of Crystal Form Y

Solubility ([8]; acetate buffer pH 4.0, 37° C.): 0.4327 µg/mL (≈ 0.731 µM)
Solubility [8, 11]: 0.7616 µg/mL (≈ 1.29 µM)
Solubility [8, 12]: 0.4915 µg/mL (≈ 0.831 µM)
Solubility [8, 13]: 0.5623 µg/mL (≈ 0.951 µM)
Solubility [8, 14]: 0.6993 µg/mL (≈ 1.18 µM)
Solubility [8, 15]: 3.2046 µg/mL (≈ 5.42 µM)
Solubility [8, 16]: 43.0713 µg/mL (≈ 72.8 µM)
Solubility ([8]; water (purified water), 37° C.): 5.2325 µg/mL (≈ 8.85 µM)
Structure (SMILES): CCCCCCO[C@@H](C)c1cccc(-c2csc(NC(=O)c3cc(Cl)c(/C=C(\C)C(=O)O)c(Cl)c3)n2)c1OC [Crystal Form Y, 4-phenylthiazole derivative]

Reference: patent US11174234B2, “Crystal form of 4-phenylthiazole derivative and preparation method thereof” (SICHUAN KELUN PHARMACEUTICAL RESEARCH INSTITUTE CO., LTD., priority 2018, dated 2021)
